Results reported in patent US20250066329A1, “PIPERIDINYLPYRIDINYLCARBONITRILE DERIVATIVES AS INHIBITORS OF GLUTAMINYL-PEPTIDE CYCLOTRANSFERASE AND GLUTAMINYL-PEPTIDE CYCLOTRANSFERASE LIKE PROTEIN” (Boehringer Ingelheim International GmbH, priority 2023, published 2025).
Like-named read-outs stand apart in the source and are kept apart here.

What was measured:
[1] = system: SIRPα signalling induced by A549 cells; experiment: Assay B: SIRPα signalling assay using A549 cells; assay type: cell-based; conditions: Homo sapiens, read-out: Inhibition of SIRPα signalling induced by A549 cells: IC50
Procedure: (§1) Two cell types are independently used: the Raji cell line (lymphoblast-like human cell line derived from B lymphocytes from a Burkitt's lymphoma patient in 1963) and A549 cells (adenocarcinomic human alveolar basal epithelial cells).
(§2) Test compounds were dissolved in 100% DMSO and serially diluted into a white 384-well microtiter cell culture plate (PerkinElmer #60076780 in case of Raji assay; PDL-coated plates Greiner #781945 in case of A549 assay). 5000 Raji cells (ATCC #CC86) or 5000 A549 cells (ATCC #CCL-185) in Assay Complete Cell Plating reagent 30 (DiscoverX 93-0563R30B) were added per well. The assay plate was incubated for 48 h at 37° C., 95% humidity and 5% CO2. 15000 reporter cells (Jurkat PathHunter SIRPαV1, DiscoverX #93-1135C19) were added to each well, and the plate was incubated for 5 h at 37° C., 95% humidity and 5% CO2. Bioassay reagent 1 of the PathHunter Bioassay detection kit (DiscoverX 93-0001) was added to each well of the plate using a multichannel pipette followed by a 15 min incubation at room temperature. Afterwards bioassay reagent 2 was added followed by 60 min incubation at room temperature (incubation in the dark). The analysis of the data was performed using the luminescence signal generated by beta-galactosidase in the PathHunter reporter cell line. The luminescence measurement was done using a Pherastar Multi-Mode Reader. Dose-response curves & IC50 data were calculated with 4-parameter sigmoidal dose response formula.

QPCT = biological target: T1, QPCT (Homo sapiens, UniProt Q16769); experiment: Assay A: biochemical QPCT activity assay (MALDI-TOF MS, CD47 peptide substrate); conditions: 0.5 nM enzyme, 20 μM CD47 peptide substrate; read-out: Inhibition of QPCT: IC50
T1 construct: purchased Origine (OriGene) TP700028
Procedure: (§3) QPCT or QPCTL dependent conversion of N-terminal glutamine to pyroglutamate of CD47 was monitored via MALDI-TOF MS. Test compounds were dissolved in 100% DMSO and serially diluted into clear 1,536-well microtiter plates. Enzymatic reactions were set up in assay buffer containing 20 mM Tris pH 7.5, 0.1 mM TCEP, 0.01% BSA, and 0.001% Tween20. […] The plates were incubated for 10 min in a humidified incubator at 24° C. Subsequently, 2.5 μL of CD47 peptide substrate surrogate (^19[…]^33) was added to each well (final concentration: 10 μM for QPCTL/20 μM for QPCT). The plates were mixed for 30 sec at 1,000 rpm and subsequently incubated for 40 min in a humidified incubator at 24° C. […] The plates were sealed with an adhesive foil, mixed for 30 s at 1,000 rpm and stored at room temperature until preparation of the MALDI target plates. […] QPCT or QPCTL activity was monitored by calculating the ratio between product and internal standard signals followed by normalization to high (100% activity) and low (0% activity) controls. Determination of compound potencies was obtained by fitting the dose-response data to a four-parameter logistical equation.

[2] = Assay C: permeability in CACO-2 cells; assay type: in vitro ADME; conditions: human, pH 7.2; for efflux ratio at 2 h: Caco-2, permeability B-A/permeability A-B; for Papp A→B at 2 h: Caco-2, apical to basolateral
Procedure: Caco-2 cells (1-2×10^5 cells/1 cm^2 area) are seeded on filter inserts (Costar transwell polycarbonate or PET filters, 0.4 µm pore size) and cultured (DMEM) for 10 to 25 days. Compounds are dissolved in appropriate solvent (like DMSO, 1-20 mM stock solutions). […] The transport solution (TL) is applied to the apical or basolateral donor side for measuring A-B or B-A permeability (3 filter replicates), respectively. Samples are collected at the start and end of experiment from the donor and at various time intervals for up to 2 hours also from the receiver side for concentration measurement by HPLC-MS/MS or scintillation counting. Sampled receiver volumes are replaced with fresh receiver solution.
Efflux ratio (ER)=permeability B-A/permeability A-B

[3] = system: SIRPα signalling induced by Raji cells; experiment: Assay B: SIRPα signalling assay using Raji cells; assay type: cell-based; conditions: Homo sapiens, read-out: Inhibition of SIRPα signalling induced by Raji cells: IC50
Procedure: as §1, §2

QPCTL = biological target: T2, QPCTL (Homo sapiens, UniProt Q9NXS2); experiment: Assay A: biochemical QPCTL activity assay (MALDI-TOF MS, CD47 peptide substrate); conditions: 0.5 nM enzyme, 10 μM CD47 peptide substrate; read-out: Inhibition of QPCTL: IC50
T2 construct: made in house
Procedure: as §3

[4] = A549 cells, 48 h compound incubation, PathHunter SIRPαV1 reporter cells
[5] = Raji cells, 48 h compound incubation, PathHunter SIRPαV1 reporter cells

T1 sequence (Q16769 29-361): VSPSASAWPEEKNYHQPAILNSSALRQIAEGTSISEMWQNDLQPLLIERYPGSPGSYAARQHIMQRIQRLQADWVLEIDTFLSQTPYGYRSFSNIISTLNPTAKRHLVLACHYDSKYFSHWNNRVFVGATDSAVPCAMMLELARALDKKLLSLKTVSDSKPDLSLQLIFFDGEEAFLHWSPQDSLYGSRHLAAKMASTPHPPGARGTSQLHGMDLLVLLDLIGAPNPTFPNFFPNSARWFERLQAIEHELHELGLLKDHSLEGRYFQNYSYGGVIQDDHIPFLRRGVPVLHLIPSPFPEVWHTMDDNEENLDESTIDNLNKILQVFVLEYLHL
T2 sequence (Q9NXS2 whole entry): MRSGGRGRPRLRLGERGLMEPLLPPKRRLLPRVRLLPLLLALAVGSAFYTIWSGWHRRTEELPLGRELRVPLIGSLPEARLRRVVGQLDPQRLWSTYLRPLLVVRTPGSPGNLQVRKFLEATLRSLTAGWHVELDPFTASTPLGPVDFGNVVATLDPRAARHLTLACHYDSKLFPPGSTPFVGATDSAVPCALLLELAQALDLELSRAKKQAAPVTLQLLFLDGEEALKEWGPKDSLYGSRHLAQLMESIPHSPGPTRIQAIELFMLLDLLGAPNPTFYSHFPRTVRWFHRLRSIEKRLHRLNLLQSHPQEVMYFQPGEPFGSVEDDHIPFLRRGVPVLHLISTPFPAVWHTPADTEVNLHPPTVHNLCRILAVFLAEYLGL

## Cn1cnnc1[C@@H]1CCN(c2c(C#N)cc(C(F)(F)F)nc2-c2ccc(F)nc2)[C@@H](C2CC2)C1 (racemic) [Example 2, (rac)-3-[trans-2-cyclopropyl-4-(4-methyl-4H-1,2,4-triazol-3-yl)piperidin-1-yl]-6′-fluoro-6-(trifluoromethyl)-[2,3′-bipyridine]-4-carbonitrile]
[1]; [4]
  IC50: 41 nM
QPCT
  IC50: 2 nM
[2]
  efflux ratio at 2 h: 6.1
  Papp A→B at 2 h: 13 ×10⁻⁶ cm/s
[3]; [5]
  IC50: 66 nM
QPCTL
  IC50: 2 nM

## Cn1cnnc1[C@@H]1CCN(c2c(C#N)cc(C(F)(F)F)nc2-c2cnc3nn(C(C)(C)C)cc3c2)[C@@H](C2CC2)C1 (racemic) [Example 3]
[1]; [4]
  IC50: 11 nM
QPCT
  IC50: 1 nM
[2]
  efflux ratio at 2 h: 39.1
  Papp A→B at 2 h: 1.1 ×10⁻⁶ cm/s
[3]; [5]
  IC50: 11 nM
QPCTL
  IC50: 1 nM

## C[C@@H]1C[C@H](c2nncn2C)CCN1c1c(C#N)ccnc1-c1ccc(F)nc1 (racemic) [Example 11]
QPCT
  IC50: 27 nM
[3]; [5]
  IC50: 89 nM
QPCTL
  IC50: 3 nM

## Cn1cnnc1C1CCN(c2c(C#N)cc(C(F)(F)F)nc2-c2ccc(F)nc2)C2(CC2)C1 (racemic) [Example 17]
[1]; [4]
  IC50: 86 nM
QPCT
  IC50: 13 nM
[2]
  efflux ratio at 2 h: 10.4
  Papp A→B at 2 h: 5.1 ×10⁻⁶ cm/s
[3]; [5]
  IC50: 246 nM
QPCTL
  IC50: 3 nM

## Cn1cnnc1[C@@H]1CCN(c2c(C#N)cc(C(F)(F)F)nc2-c2ccc(F)nc2)[C@@H](C2CC2)C1 [Example 1, 3-[(2R,4R)-2-cyclopropyl-4-(4-methyl-4H-1,2,4-triazol-3-yl)piperidin-1-yl]-6′-fluoro-6-(trifluoromethyl)-[2,3′-bipyridine]-4-carbonitrile]
[1]; [4]
  IC50: 27 nM
QPCT
  IC50: 2 nM
[2]
  efflux ratio at 2 h: 4.4
  Papp A→B at 2 h: 17 ×10⁻⁶ cm/s
[3]; [5]
  IC50: 27 nM
QPCTL
  IC50: 1 nM

## Cc1cnnn1C1CCN(c2ncccc2-c2ccc(F)nc2)CC1 [Example 3]
[1]; [4]
  IC50: 921 nM
QPCT
  IC50: 482 nM
[2]
  efflux ratio at 2 h: 0.8
  Papp A→B at 2 h: 93 ×10⁻⁶ cm/s
[3]; [5]
  IC50: 2740 nM
QPCTL
  IC50: 52 nM

## C[C@H]1C[C@H](c2nncn2C)CCN1c1c(C#N)cc(C(F)(F)F)nc1-c1ccc(F)nc1 [Example 4, 6′-fluoro-3-[(2S,4R)-2-methyl-4-(4-methyl-4H-1,2,4-triazol-3-yl)piperidin-1-yl]-6-(trifluoromethyl)-[2,3′-bipyridine]-4-carbonitrile]
QPCT
  IC50: 74 nM
[2]
  efflux ratio at 2 h: 4.6
  Papp A→B at 2 h: 15 ×10⁻⁶ cm/s
[3]; [5]
  IC50: 925 nM
QPCTL
  IC50: 6 nM

## C[C@H]1C[C@H](c2nncn2C)CCN1c1c(C#N)ccnc1-c1ccc(F)nc1 [Example 5, 6′-fluoro-3-[(2S,4R)-2-methyl-4-(4-methyl-4H-1,2,4-triazol-3-yl)piperidin-1-yl]-[2,3′-bipyridine]-4-carbonitrile]
[1]; [4]
  IC50: 57 nM
QPCT
  IC50: 2 nM
[2]
  efflux ratio at 2 h: 5
  Papp A→B at 2 h: 3.6 ×10⁻⁶ cm/s
[3]; [5]
  IC50: 48 nM
QPCTL
  IC50: 1 nM

## C[C@H]1C[C@H](c2nncn2C)CCN1c1c(C#N)ccnc1-c1ccnnc1 [Example 6, 3-[(2S,4R)-2-methyl-4-(4-methyl-4H-1,2,4-triazol-3-yl)piperidin-1-yl]-2-(pyridazin-4-yl)pyridine-4-carbonitrile]
[1]; [4]
  IC50: 551 nM
QPCT
  IC50: 3 nM
[2]
  efflux ratio at 2 h: 8.4
  Papp A→B at 2 h: 0.2 ×10⁻⁶ cm/s
[3]; [5]
  IC50: 540 nM
QPCTL
  IC50: 2 nM

## Cn1cnnc1[C@@H]1CCN(c2c(C#N)cc(C(F)(F)F)nc2-c2cnc3nn(C(C)(C)C)cc3c2)[C@H](C2CC2)C1 [Example 7, 2-{2-tert-butyl-2H-pyrazolo[3,4-b]pyridin-5-yl}-3-[(2S,4R)-2-cyclopropyl-4-(4-methyl-4H-1,2,4-triazol-3-yl)piperidin-1-yl]-6-(trifluoromethyl)pyridine-4-carbonitrile]
[1]; [4]
  IC50: 12 nM
QPCT
  IC50: 1 nM
[2]
  efflux ratio at 2 h: 23.5
  Papp A→B at 2 h: 2 ×10⁻⁶ cm/s
[3]; [5]
  IC50: 9 nM
QPCTL
  IC50: 1 nM

## Cn1cnnc1[C@@H]1CCN(c2c(C#N)cc(C(F)(F)F)nc2-c2ccc(F)nc2)[C@H](C2CC2)C1 [Example 8]
[1]; [4]
  IC50: 47 nM
QPCT
  IC50: 6 nM
[2]
  efflux ratio at 2 h: 3.3
  Papp A→B at 2 h: 22 ×10⁻⁶ cm/s
[3]; [5]
  IC50: 47 nM
QPCTL
  IC50: 1 nM

## CC[C@@H]1C[C@H](c2nncn2C)CCN1c1c(C#N)cc(C(F)(F)F)nc1-c1ccc(F)nc1 [Example 9]
[1]; [4]
  IC50: 109 nM
QPCT
  IC50: 50 nM
[2]
  efflux ratio at 2 h: 3.8
  Papp A→B at 2 h: 22 ×10⁻⁶ cm/s
[3]; [5]
  IC50: 325 nM
QPCTL
  IC50: 18 nM

## C[C@@H]1C[C@H](c2nncn2C)CCN1c1c(C#N)cc(C(F)(F)F)nc1-c1ccc(F)nc1 [Example 10, 6′-fluoro-3-[(2R,4R)-2-methyl-4-(4-methyl-4H-1,2,4-triazol-3-yl)piperidin-1-yl]-6-(trifluoromethyl)-[2,3′-bipyridine]-4-carbonitrile]
[1]; [4]
  IC50: 111 nM
QPCT
  IC50: 23 nM
[2]
  efflux ratio at 2 h: 5.8
  Papp A→B at 2 h: 7.8 ×10⁻⁶ cm/s
[3]; [5]
  IC50: 1100 nM
QPCTL
  IC50: 10 nM

## C[C@@H]1C[C@](F)(c2nncn2C)CCN1c1c(C#N)ccnc1-c1ccc(F)nc1 [Example 13]
[1]; [4]
  IC50: 236 nM
QPCT
  IC50: 14 nM
[2]
  efflux ratio at 2 h: 2.4
  Papp A→B at 2 h: 22 ×10⁻⁶ cm/s
[3]; [5]
  IC50: 301 nM
QPCTL
  IC50: 6 nM

## C[C@@H]1C[C@](F)(c2nncn2C)CCN1c1c(C#N)cc(C(F)(F)F)nc1-c1ccc(F)nc1 [Example 14]
[1]; [4]
  IC50: 232 nM
QPCT
  IC50: 24 nM
[2]
  efflux ratio at 2 h: 1.2
  Papp A→B at 2 h: 58 ×10⁻⁶ cm/s
[3]; [5]
  IC50: 621 nM
QPCTL
  IC50: 16 nM

## C[C@@H]1C[C@](F)(c2nncn2C)CCN1c1c(C#N)cc(C(F)(F)F)nc1-c1ccnnc1 [Example 15]
[1]; [4]
  IC50: 486 nM
QPCT
  IC50: 24 nM
[2]
  efflux ratio at 2 h: 9.4
  Papp A→B at 2 h: 3.3 ×10⁻⁶ cm/s
[3]; [5]
  IC50: 837 nM
QPCTL
  IC50: 14 nM

## C[C@@H]1C[C@](F)(c2nncn2C)CCN1c1c(C#N)cc(C(F)(F)F)nc1-c1cnc2nn(C(C)(C)C)cc2c1 [Example 16]
[1]; [4]
  IC50: 74 nM
QPCT
  IC50: 5 nM
[2]
  efflux ratio at 2 h: 7.1
  Papp A→B at 2 h: 9.2 ×10⁻⁶ cm/s
[3]; [5]
  IC50: 124 nM
QPCTL
  IC50: 7 nM

## Cn1cnnc1C1CCN(c2ncccc2-c2ccc(F)nc2)CC1 [SEN177, reference compound]
[1]; A549, 48 h
  IC50: 214 nM
[3]; Raji, 48 h
  IC50: 1360 nM
